Data from patent US20080241258A1, “TREATMENT OF DISEASES WITH NANOPARTICLES HAVING A SIZE-DEPENDENT CYTOTOXICITY” (priority 2007, published 2008).

Key:
[1] = Stability (aggregation) of Au compounds in serum containing cell culture media, scored from microscopic pictures; type: physicochemical; set-up: key: Material aggregation was scored positive (+); negative (−); settings: for Aggregation at 12 hours: sign after slash; for Aggregation at 5 minutes: sign in front of slash
Source text: Next applicant tested the stability of the materials in the serum containing cell culture media formulated for proper growth of the cell lines used in this study. Applicant reasoned that the medium composition might affect particle aggregation and that aggregation of materials would greatly influence the endocytic pathway and ultimately the cellular trajectories of materials precluding or favoring intracellular targets. Macroscopic and microscopic aspects of medium-material combinations in the absence of any cells were studied by applicant.
Materials were grouped according to their stability in specific media and over time.
Material stability was assayed in DMEM high glucose (H). DMEM low glucose (L) and RPMI 1640 including 10% fetal calf serum. Material aggregation was scored positive (+) or negative (−) from microscopic pictures taken after 5 minutes (sign in from of slash) and 12 hours incubation (sign after slash).

[2] = system: HeLa cervix carcinoma epithelial cells; test: MTT cytotoxicity assay, logarithmic growth phase; type: cell-based; settings: FIG. 3A, at ˜10 μM ligand
Source text: Applicant quantified the toxicity of Au compounds in four cell lines determining the inhibitory concentrations that effected 50% growth inhibition (IC50) in MTT assays. Applicant reasoned that actively growing and dividing cells during logarithmic growth should be more vulnerable to toxic insults than cells in near or at the stationary phase of cell culture. Thus, applicant determined growth curves for all cell lines to estimate the logarithmic and stationary growth phases in relation to the number of cells seeded into each well of a 96-well cell culture plate. […] This graph serves as a reference to estimate whether cells were in the logarithmic or in the stationary phase of cell culture at the start of any given experiment. […] The bottom panel depicts the protocol of cytotoxicity testing starting during the logarithmic (left bottom panel) or the stationary growth phase (right bottom panel).
Having established growth characteristics for the reporter cell lines applicant treated the cells with Au compounds for up to 48 hours to observe the full effect of toxicity. […]
FIG. 3 A): HeLa cells were plated at 2000 cells/well and grown for 3 days into the logarithmic growth phase. […] Shown are the logarithmic curve fits of tabulated MTT readings. […] All concentrations relate to the amount of gold [Au] detected by AAS in the authentic samples after performing the cytotoxicity test. […]

[3] = system: HeLa, SK-MeI-28, L929 and J774A1 cells; test: MTT cytotoxicity assay in four cell lines
Source text: Applicant tested the cytotoxicity of these particles in four cell lines representing major functional cell types with barrier and phagocyte function.
Applicant added Au compounds to HeLa cervix carcinoma epithelial cells (HeLa), SK-MeI-28 melanoma cells (SK-MeI-28), L929 mouse fibroblasts (L929) and J774A.1 mouse monocytic/macrophage cells (J774A1) and first studied their response by light and electron microscopy.
Applicant quantified the toxicity of Au compounds in four cell lines determining the inhibitory concentrations that effected 50% growth inhibition (IC50) in MTT assays. […] Thus, applicant determined growth curves for all cell lines to estimate the logarithmic and stationary growth phases in relation to the number of cells seeded into each well of a 96-well cell culture plate.
Having established growth characteristics for the reporter cell lines applicant treated the cells with Au compounds for up to 48 hours to observe the full effect of toxicity. […] Applicant performed toxicity tests both during the logarithmic and the stationary phase of cell growth following the time course depicted in FIG. 2, lower panels.
FIG. 3 A): HeLa cells were plated at 2000 cells/well and grown for 3 days into the logarithmic growth phase. […] All concentrations relate to the amount of gold [Au] detected by AAS in the authentic samples after performing the cytotoxicity test. […]

[4] = DMEM high glucose (H) including 10% fetal calf serum
[5] = DMEM low glucose (L) including 10% fetal calf serum
[6] = RPMI 1640 including 10% fetal calf serum

Compound	Aggregation at 12 hours [1, 4]	Aggregation at 5 minutes [1, 4]	Aggregation at 12 hours [1, 5]	Aggregation at 5 minutes [1, 5]	Aggregation at 12 hours [1, 6]	Aggregation at 5 minutes [1, 6]	ligand toxicity [2]	non-toxic at up to x fold higher concentration (than 1.4 nm nanoclusters) ([3]; four cell lines)	IC50 ([3]; read-out: cytotoxicity: non-toxic at concentrations up to, all cells tested) [mM]
O=S(=O)([O-])c1cccc(P(c2ccccc2)c2ccccc2)c1.[Na+] [TPPMS, triphenylphosphine monosulfonate]	−/−	−/−	−/−	−/−	−/−	−/−	non-toxic		
[Au+3].[Cl-].[Cl-].[Cl-].[Cl-].[H+] [HAuCl4]	−/−	−/−	−/−	−/−	−/−	−/−			
gold thiomalate [Tauredon]	+/+	+/+	+/+	+/+	+	−		up to 1000 fold	> 10
O=S(=O)([O-])c1cccc(P(c2cccc(S(=O)(=O)[O-])c2)c2cccc(S(=O)(=O)[O-])c2)c1.[Na+].[Na+].[Na+] [TPPTS, triphenylphosphine trisulfonate]	−/−	−/−	−/−	−/−	−/−	−/−	non-toxic		
[Cl][Au-]([Cl])([Cl])[Cl].[Na+] [NaAuCl4]	−/−	−/−	−/−	−/−	−/−	−/−			
